This note sets out measurements from ChEMBL document CHEMBL3045323, “Synthesis, anti-inflammatory and anticancer activity evaluation of some mono- and bis-Schiffs bases” (2012).

Usually inhibition in vivo stands for the drop in the measured response relative to a control, in per cent.

Molecules are shown by their SMILES. Starred links: 1 amine or outer side, 2 acyl side, 3 side chain; linkers in the order of their positions; H or OH if unused. Positions of bridges follow the written chain, without caps; N, C: chain ends. Non-standard residues stand in square brackets, D forms with d. Residues, ends and D or L forms follow the SMILES beside them. Chains are numbered I, II in the order given. Actinocin(1to9) = Cc1c2oc3c(C)ccc(C(=O)[*:2])c3nc-2c(C(=O)[*:1])c(N)c1=O; NMeV = CN[C@H](C(=O)O)C(C)C; Sar = CNCC(=O)O

Holding throughout (type): functional
In test [1] the test system is HepG2. Put plainly: Cytotoxicity against Homo sapiens (human) HepG2 cells assessed as growth inhibition at 1 x 10^-5 M after 48 hr by SRB assay. To be noted: HepG2, 48 h, read-out: GI.
The subject of test [2] is HCT-15. Kind of test: Cytotoxicity against Homo sapiens (human) HCT15 cells assessed as growth inhibition at 1 x 10^-5 M after 48 hr by SRB assay. Conditions: HCT-15, 48 h, read-out: GI. In general terms: In SRB staining, fixed cells bind dye roughly in proportion to their protein.
Test [3] has as its system T47D. Put plainly: Cytotoxicity against Homo sapiens (human) T47D cells assessed as growth inhibition at 1 x 10^-5 M after 48 hr by SRB assay. To be noted: read-out: GI.
In test [4] the test system is PA-1. Put plainly: Cytotoxicity against Homo sapiens (human) PA1 cells assessed as growth inhibition at 1 x 10^-5 M after 48 hr by SRB assay. To be noted: PA-1, 48 h, read-out: GI.
Test [5] deals with NCI-H522. Put plainly: Cytotoxicity against Homo sapiens (human) NCI-H522 cells assessed as growth inhibition at 1 x 10^-5 M after 48 hr by SRB assay. To be noted: NCI-H522, 48 h, read-out: GI.
The subject of test [6] is Rattus norvegicus. Kind of test: Anti-inflammatory activity inRattus norvegicus albino (rat) assessed as inhibition of carrageenan-induced paw edema at 50 mg/kg, po administered for 30 min followed by carrageenan challenge measured after 1 to 3 hr relative to control. In general terms: The carrageenan paw model is a standard test of acute inflammation.

For `O=c1[nH]cc(F)c(=O)[nH]1` [FLUOROURACIL], the inhibition of growth at 10 µM turned out to be 33% in test [1]; 21% in test [2]; 22% in test [3]; 27% in test [4]; 51% in test [5].

`COc1ccc(OC)c(/C=N/CC2CCCO2)c1` (stereo unspecified): the inhibition of growth at 10 µM stood at 25% in test [1]; 0% in test [2]; 33% in test [3]; 38% in test [4]; 15% in test [5]. Moreover, the inhibition in vivo at 50 mg/kg in test [6] came to 16%.

As for `O=P1(N(CCCl)CCCl)NCCCO1` (stereo unspecified) [CYCLOPHOSPHAMIDE ANHYDROUS], the inhibition of growth at 10 µM in test [1] came out at 24%; in test [2] it was 7%; in test [3], 36%; in test [4], 21%; in test [5], 7%.

As for `COc1ccc(OC)c(/C=N/CCN2CCNCC2)c1`, the inhibition of growth at 10 µM in test [1] worked out at 22%; in test [2], 4%; in test [3], 28%; in test [4], 16%; in test [5], 49%. The inhibition in vivo at 50 mg/kg in test [6] came out at 21%.

`COc1cc(/C=N/c2n[nH]c(/N=C/c3ccc(O)c(OC)c3)n2)ccc1O`: the inhibition of growth at 10 µM in test [1] was 14%; in test [2], 4%; in test [3], 38%; in test [4], 40%; in test [5], 9%. Also, the inhibition in vivo at 50 mg/kg in test [6] is 26%.

Turning to `C(=N\c1n[nH]c(/N=C/c2ccco2)n1)/c1ccco1`, the inhibition of growth at 10 µM in test [1] turned out to be 25%; in test [2], 3%; in test [3] it was 30%; in test [4] it was 48%; in test [5], 26%. In test [6], the inhibition in vivo at 50 mg/kg is 11%.

In the case of `C(=N\CCCN1CCN(CCC/N=C/c2ccco2)CC1)/c1ccco1`, the inhibition of growth at 10 µM in test [1] was found to be 10%; in test [2] it was 6%; in test [3] it was 9%; in test [4], 43%; in test [5] it was 5%. The inhibition in vivo at 50 mg/kg in test [6] came to 30%.

As for `CC(C)Cc1ccc(C(C)C(=O)O)cc1` (stereo unspecified) [IBUPROFEN], in test [6], the inhibition in vivo at 50 mg/kg was found to be 39%.

With `C(=N\CCN1CCNCC1)/c1ccco1`, the inhibition of growth at 10 µM was 18% in test [1]; 5% in test [2]; 21% in test [3]; 35% in test [4]; 19% in test [5]. Further, in test [6], the inhibition in vivo at 50 mg/kg was found to be 22%.

As for `Cc1c2oc3c(C)ccc(C(=O)N[C@@H]4C(=O)N[C@H](C(C)C)C(=O)N5CCC[C@H]5C(=O)N(C)CC(=O)N(C)[C@@H](C(C)C)C(=O)O[C@@H]4C)c3nc-2c(C(=O)N[C@@H]2C(=O)N[C@H](C(C)C)C(=O)N3CCC[C@H]3C(=O)N(C)CC(=O)N(C)[C@@H](C(C)C)C(=O)O[C@@H]2C)c(N)c1=O` [DACTINOMYCIN] (I: T[dV]P[Sar][NMeV] / II: T[dV]P[Sar][NMeV]; ester I:1-I:C, II:1-II:C; linker I:N-II:N via Actinocin(1to9)), the inhibition of growth at 10 µM in test [1] amounted to 42%; in test [2], 49%; in test [3], 21%; in test [4], 93%; in test [5] it was 59%.

With `COc1ccc(OC)c(/C=N/CCCn2ccnc2)c1`, the inhibition of growth at 10 µM amounted to 24% in test [1]; 3% in test [2]; 29% in test [3]; 25% in test [4]; 24% in test [5]. Besides, the inhibition in vivo at 50 mg/kg in test [6] was 0%.

In the case of `COc1ccc(OC)c(/C=N/CCCN2CCN(CCC/N=C/c3cc(OC)ccc3OC)CC2)c1`, the inhibition of growth at 10 µM came to 8% in test [1]; 7% in test [2]; 24% in test [3]; 62% in test [4]; 13% in test [5]. The inhibition in vivo at 50 mg/kg in test [6] was found to be 20%.

As to `C(=N\CCCn1ccnc1)/c1ccco1`, the inhibition of growth at 10 µM came out at 1% in test [1]; 1% in test [2]; 16% in test [3]; 13% in test [4]; 29% in test [5]. Besides, the inhibition in vivo at 50 mg/kg in test [6] was found to be 28%.

With `C[C@@H]1C[C@@H]([C@H](O)CC2CC(=O)NC(=O)C2)C(=O)[C@@H](C)C1` [CYCLOHEXIMIDE], the inhibition of growth at 10 µM in test [1] came to 14%; in test [2], 5%; in test [3], 30%; in test [4], 82%; in test [5], 20%.

On to `C(=N\CC1CCCO1)/c1ccco1` (stereo unspecified), for which the inhibition of growth at 10 µM in test [1] was determined as 20%; in test [2], 4%; in test [3], 12%; in test [4], 16%; in test [5], 15%. Besides, the inhibition in vivo at 50 mg/kg in test [6] stood at 26%.

As to `COc1cc(/C=N/CCCN2CCN(CCC/N=C/c3ccc(O)c(OC)c3)CC2)ccc1O`, the inhibition of growth at 10 µM in test [1] worked out at 3%; in test [2] it was 5%; in test [3], 18%; in test [4] it was 51%; in test [5], 1%. In addition, the inhibition in vivo at 50 mg/kg in test [6] turned out to be 25%.

Turning to `COc1cc(/C=N/CCCn2ccnc2)ccc1O`, the inhibition of growth at 10 µM was found to be 11% in test [1]; 1% in test [2]; 15% in test [3]; 16% in test [4]; 22% in test [5]. In addition, in test [6], the inhibition in vivo at 50 mg/kg came out at 0%.

As for `COc1cc(/C=N/CCN2CCNCC2)ccc1O`, the inhibition of growth at 10 µM amounted to 30% in test [1]; 4% in test [2]; 25% in test [3]; 39% in test [4]; 25% in test [5]. The inhibition in vivo at 50 mg/kg in test [6] was 18%.

For the compound `COc1ccc(OC)c(/C=N/c2n[nH]c(/N=C/c3cc(OC)ccc3OC)n2)c1`, the inhibition of growth at 10 µM in test [1] turned out to be 10%; in test [2], 5%; in test [3] it was 41%; in test [4], 53%; in test [5], 15%. The inhibition in vivo at 50 mg/kg in test [6] is 22%.

In the case of `COc1cc(/C=N/CC2CCCO2)ccc1O` (stereo unspecified), the inhibition of growth at 10 µM is 1% in test [1]; 24% in test [2]; 25% in test [3]; 13% in test [4]; 17% in test [5]. Moreover, in test [6], the inhibition in vivo at 50 mg/kg was determined as 14%.
